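48-hour exposure; five concentrations; linearly interpolated endpoints. TGI is the concentration that stops growth completely.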
Columns and labels:
Experiment in all cases: NCI tumour cell line growth inhibition, 48 h
[1] = system: RPMI-8226 leukemia
[2] = system: SF-295 CNS
[3] = system: UACC-62 melanoma
[4] = system: HCT-116 colon
[5] = system: A498 renal
[6] = system: SNB-19 CNS
[7] = system: K-562 leukemia
[8] = system: HT29 colon
[9] = system: KM12 colon
[10] = system: OVCAR-5 ovarian
[11] = system: NCI-H226 lung
[12] = system: HOP-92 NSCLC
[13] = system: SK-MEL-2 melanoma
[14] = system: NCI/ADR-RES ovarian
[15] = system: 786-0 renal
[16] = system: SK-MEL-28 melanoma
[17] = system: HOP-62 NSCLC
[18] = system: T-47D breast
[19] = system: M14 melanoma
[20] = system: TK-10 renal
[21] = system: MOLT-4 leukemia
[22] = system: PC-3 prostate
[23] = system: EKVX NSCLC
[24] = system: IGROV1 ovarian
[25] = system: SK-MEL-5 melanoma
[26] = system: SF-268 CNS
[27] = system: SW-620 colon
[28] = system: MDA-MB-435
[29] = system: NCI-H23 lung
[30] = system: CCRF-CEM leukemia
[31] = system: OVCAR-8 ovarian
[32] = system: HCT-15 colon
[33] = system: UACC-257 melanoma
[34] = system: OVCAR-4 ovarian
[35] = system: DU-145 prostate
[36] = system: CAKI-1 renal
[37] = system: LOX IMVI melanoma
[38] = system: MDA-MB-231 breast
[39] = system: RXF 393 renal
[40] = system: A549 NSCLC
[41] = system: MALME-3M melanoma
[42] = system: NCI-H522 lung
[43] = system: U251 CNS
[44] = system: SR leukemia
[45] = system: BT-549 breast
[46] = system: ACHN renal
[47] = system: NCI-H460 lung
[48] = system: OVCAR-3 ovarian
[49] = system: SN12C renal
[50] = system: HL-60(TB) leukemia
[51] = system: UO-31 renal
[52] = system: MDA-N
[53] = system: COLO 205 colon
[54] = system: HCC-2998 colon
[55] = system: MCF7 breast
[56] = system: SNB-75 CNS
[57] = system: SF-539 CNS
[58] = system: SK-OV-3 ovarian
[59] = system: HS 578T breast

OC(Cc1ccccc1)(Cc1ccccc1)c1ccccc1
TGI [1]: > 100 µM
TGI [2]: 34.9 µM
TGI [3]: 31.3 µM
TGI [4]: 35.8 µM
TGI [5]: 34.1 µM
TGI [6]: 67.9 µM
TGI [7]: > 100 µM
TGI [8]: 34.9 µM
TGI [9]: 33.3 µM
TGI [10]: 38 µM
TGI [11]: 34.2 µM
TGI [12]: 32.2 µM
TGI [13]: 29.6 µM
TGI [14]: 71.6 µM
TGI [15]: 29.6 µM
TGI [16]: 47.3 µM
TGI [17]: 36.1 µM
TGI [18]: > 100 µM
TGI [19]: 33.3 µM
TGI [20]: 42.6 µM
TGI [21]: > 100 µM
TGI [22]: 34.4 µM
TGI [23]: 38 µM
TGI [24]: 33.7 µM
TGI [25]: 32.5 µM
TGI [26]: 29.8 µM
TGI [27]: 52.2 µM
TGI [28]: 33.4 µM
TGI [29]: 38.4 µM
TGI [30]: > 100 µM
TGI [31]: 39.6 µM
TGI [32]: 50.4 µM
TGI [33]: 36.7 µM
TGI [34]: 32.4 µM
TGI [35]: 32.3 µM
TGI [36]: 47.7 µM
TGI [37]: 37.1 µM
TGI [38]: 33.8 µM
TGI [39]: 29.3 µM
TGI [40]: 46.3 µM
TGI [41]: 27.1 µM
TGI [42]: 32.3 µM
TGI [43]: 32.8 µM
TGI [44]: 80.8 µM
TGI [45]: 36.3 µM
TGI [46]: 33.5 µM
TGI [47]: 44.4 µM
TGI [48]: 32.8 µM
TGI [49]: 32 µM
TGI [50]: 52.8 µM
TGI [51]: 32.4 µM
TGI [52]: 29.2 µM

CCN(CC)C(=S)SC(=S)N(CC)CC
TGI [1]: 57.4 µM
TGI [2]: > 100 µM
TGI [53]: 45 µM
TGI [3]: > 93.1 µM
TGI [4]: > 58.3 µM
TGI [5]: > 100 µM
TGI [6]: > 100 µM
TGI [7]: > 100 µM
TGI [9]: 64.2 µM
TGI [10]: > 100 µM
TGI [11]: > 100 µM
TGI [12]: > 87.3 µM
TGI [13]: > 100 µM
TGI [54]: > 100 µM
TGI [14]: > 100 µM
TGI [15]: 56.3 µM
TGI [16]: > 100 µM
TGI [17]: > 100 µM
TGI [18]: > 100 µM
TGI [55]: > 100 µM
TGI [56]: 99.2 µM
TGI [57]: > 100 µM
TGI [19]: > 100 µM
TGI [20]: > 100 µM
TGI [21]: > 72.8 µM
TGI [22]: > 100 µM
TGI [23]: > 100 µM
TGI [24]: > 100 µM
TGI [25]: > 46.5 µM
TGI [26]: > 100 µM
TGI [27]: > 100 µM
TGI [28]: > 100 µM
TGI [29]: > 80.6 µM
TGI [31]: > 100 µM
TGI [32]: > 100 µM
TGI [33]: > 100 µM
TGI [34]: > 100 µM
TGI [35]: > 100 µM
TGI [36]: 99.7 µM
TGI [37]: 58.9 µM
TGI [38]: > 92.1 µM
TGI [39]: > 100 µM
TGI [40]: > 100 µM
TGI [41]: > 58.4 µM
TGI [42]: 18.2 µM
TGI [43]: > 100 µM
TGI [45]: 77.4 µM
TGI [58]: > 100 µM
TGI [46]: > 100 µM
TGI [47]: > 100 µM
TGI [48]: > 94.4 µM
TGI [49]: > 100 µM
TGI [50]: > 100 µM
TGI [59]: > 100 µM
TGI [51]: > 76.3 µM
TGI [52]: > 100 µM

Reference: PubChem BioAssay (NCI)
